Test results taken from patent US5705649A, “Protein staining compositions and methods” (Promega Corporation, priority 1995, dated 1998).

How the values were obtained:
[1] = tested on: Promega Mid-Range Molecular Weight Standards; assay: Post-electrophoretic detection of protein using NBODY derivatives; settings: crude dye solution in 5% acetic acid, 20% ethanol, one hour
Description: Promega Mid-Range Molecular Weight Standards were diluted and heated as described in Example 27 to produce solutions containing 125, 25, 5 and 1 ng of protein per band in 10 microliters of solution. A 10% Tris Glycine, precast polyacrylamid gel from Novex Corp. (San Diego, Calif., USA, Cat. No. EC 6075.) was loaded with 10 microliters of the just described, diluted molecular weight standard solutions in lanes so that two lanes, each with the same diluted standard solution, were separated by a blank lane. The gel was developed using conditions recommended by the manufacturer and following development, the gel was cut in the blank lane. The segments were placed in 50 ml of 5% acetic acid, 20% ethanol. Six hundred microliters of the NBODY-C12 reaction mixture from Example 40 was added to the solution with one of the segments of a pair (of lanes with the same protein molecular weight standard solution) and three hundred microliters of the NBODY-C16 reaction mixture from Example 40 was added to the solution with the other segment of the same pair. After one hour of incubation, the gel segments were photographed on a transilluminator as described in example 27. Protein bands were detected in the lanes containing the 125 and 25 ng of protein per band using this method and the crude dye solutions from Example 40.

[2] = tested on: Promega Mid Range Molecular Weight Standards; assay: Post-electrophoretic staining of gels with octyl and dodecyl derivatives of MDPF
Description: A fifteen well, 12% gel was made as described in example 5 and was loaded with diluted Promega Mid Range Molecular Weight Standards to produce lanes containing samples having 200, 100, 80, 60, 40, 20 and 10 ng of protein per band. The gel was run as described in example 5 except that Promega Green 1 was not added to the cathode buffer. After electrophoresis, the gel was cut between lanes to produce gel segments containing fractionated protein samples at each of the concentrations listed above and these were placed in 30% methanol for 25-30 min at room temperature. The stock stain solutions of Example 33 were then diluted into distilled water at a concentration of 0.5% (v/v), and 50 ml of these solutions were used to stain the gels. After 1 hr incubation, the gels were visualized and photographed using a transilluminator. […] The gels were then placed in 5% methanol and allowed to destain overnight.
After overnight destaining, the gel segments were again placed upon a transilluminator, visualized and photographed. […] Nonetheless, these derivatives can be used for sensitive post-electrophoretic staining of proteins in gels.

[3] = tested on: Promega Mid Range Molecular Weight Standards; assay: In-gel staining with octyl and dodecyl derivatives of MDPF; settings: stain stock in cathode buffer and wells
Description: (§1) Two 10-well, 12% gels were made as described in Example 5 and were loaded with diluted Promega Mid Range Molecular Weight Standards to produce lanes containing 200, 100, 80, 60, 40, 20, 10, and 5 ng of protein per band following fractionation by electrophoresis. These protein levels were applied to the gels in 10 μl of loading buffer described in Example 5 and then 10 μl of a 1:100 dilution of the derivative stock solution (Example 33) into a solution of 20% glycerol, 1% sodium dodecyl sulfate was added to the wells. The gels were then run as described in Example 5 except that 0.5 ml of derivative stain stock was added to the cathode buffer in the gel and the Promega Green 1 dye was omitted from the solution. The gels were placed on a transilluminator following electrophoresis and were observed visually and photographed as described above. Staining of the protein bands was seen down to 80 ng of protein per band for the dodecyl derivative for all proteins and, for the 31 kdalton standard (carbonic anhydrase) down to 60 ng/band. Staining of the bands was seen to 60 ng/band for all proteins with the octyl derivative, with the carbonic anhydrase being detectable down to 40 ng per band. Therefore both stains can be used for in-gel staining of proteins.

carbonic anhydrase = assay: as above; settings: 31 kdalton standard; stain stock in cathode buffer and wells
Description: as §1

[4] = tested on: Promega Mid Range Molecular Weight Standards; assay: Post-electrophoretic detection of protein with purified dansyl derivatives
Description: Samples of the eluates from purification of the derivatives were diluted 20-fold with ethanol and the absorption of the resulting solutions from 400 to 220 nm was measured. The absorption of the solutions at 328 nm was used as an indication of the concentration of the derivative in the staining studies in Example 27.
Several SDS-PAGE minigels were made as described in Experiments with Gene Fusions, Silhavy, Berman, Enquist, supra, using the SDS concentrations described by the authors. Samples of Promega Mid Range Molecular Weight Standards were diluted into the loading solution described in the reference above to produce solutions containing 200, 100, 50, 25, and 12.5 ng of each protein species in 10 μl of solution. These solutions were loaded onto the gels and the samples were fractionated in the gels by application of 10 mA per gel until the tracking dye for the samples reached the bottom of the gel. The gels were then rinsed 1 min in distilled water, 15 min in 10% trichloracetic acid (w/v), and then for 15 min in 10% methanol (v/v). The gel segments, approximately 5×6 cm containing the fractionated standard, were then transferred to a 2% ethanol solution (50 ml) containing 0.05 OD328 -equivalent of each of the dansyl derivatives (see Example 26).
The gel segments were returned to their respective staining solutions and were incubated overnight. The following morning, all of the gel segments were again visualized on the transilluminator and photographed as described above. […] In general, relatively equivalent staining of bands was obtained as determined by the strength of the fluorescent signal observed for the various fractionated species.

[5] = tested on: Promega Mid Range Molecular Weight Standards; assay: Detection of fractionated protein in SDS-PAGE gels using dansyl derivatives made in acetone
Description: Several 15-well, SDS-PAGE minigels were poured as described in Example 27 and loaded with Promega Mid Range Molecular Weight Standards diluted as described in Example 27 to provide samples containing 1000, 300, 100, 50, 25, 12.5, and 6.25ng of each protein per band in separate lanes of the gel. The samples were fractionated by application of 20 mA per gel until the tracking dye reached the bottom of the gel. All the gels were placed in 10% trichloroacetic acid for 5 min and then incubated for 10 min in 10% (v/v) methanol. The gels were then incubated in a 10% methanol solution containing 2% (v/v) of the derivative eluates (dissolved in 50 ml ethanol) described in Example 28. The gels were transferred to a transilluminator and both visualized and photographed after two hours of staining. The following observations were made. Only the lanes containing 1000 and 300ng of protein per band were visible in the gel incubated with the n-butyl dansyl derivative. The lanes containing the 1000, 300, 100, 50, 25ng per band were visible in the gel incubated with the n-hexyl derivative as were some of the bands in the 12.5 ng per band lane.
After overnight incubation in the stain solutions, the gels were re-observed and rephotographed.
The gels were then placed in 1% acetic acid to remove any unbound stain and rephotographed after three hours of incubation in this solution at room temperature.

[6] = tested on: Promega Mid-Range Molecular Weight Standards; assay: Optimization of post-electrophoretic staining with dodecyl dansyl stain
Description: In order to determine if alternative staining conditions would improve the detection of protein by fluorescent staining with the dodecyl dansyl stain, the following experiment was performed. Two 12% SDS-PAGE minigels from Bio-Rad Corporation were used to fractionate samples of diluted Promega Mid-Range Molecular Weight Standards which were loaded into alternate lanes of the gel to produce protein bands containing 25 and 5 ng of each protein per band in adjacent lanes. The gels were run as recommended by the manufacturer in Bio-Rad Miniprotean II electrophoresis units and sliced to produce two lane segments containing one lane each of the 25 and 5 ng sample lanes. One slice was placed in each of the following solutions (50 ml) followed by incubation of the segment in a second 50 ml of the solution containing 200 μl of dodecyl dansyl derivative solution (in 50 ml ethanol) of Example 28: distilled water; 1% acetic acid; 1% trichloroacetic acid; 5M sodium chloride; 0.5M Tris base; 0.5M ammonium bicarbonate, pH 5.0; 2M Tris pH8.0; 0.05M sodium hydroxide; and 10% ethanol. The gels were allowed to stain overnight at room temperature and then were observed on a transilluminator to allow visualization and photography of the fluorescently stained bands as described in Example 27. […] It was thought that this is due to an inability of the particular stain derivative used to fluoresce under the highly acidic condition produced in the trichloroacetic acid solution.
In order to determine if the stain remained intact in these solutions and to standardize the conditions for the stains, the gel segments were then incubated in 50 ml of distilled water. After 1 hr, the segments were re-observed and re-photographed. […] Thus, staining sensitivity is dependent upon staining conditions and mildly acidic conditions appear to improve the sensitivity of staining.

[7] = tested on: Promega Mid Range Molecular Weight standard; assay: Optimization of staining with dodecyl dansyl stain, acetic acid/ethanol fixing and staining
Description: Two 12% SDS-PAGE gels were run with diluted Promega Mid Range Molecular Weight standard to produce samples of proteins at 20, 10, and 5 ng of protein per band present in the gels. The gels were made as in Example 27 and proteins were fractionated on the gels in a BioRad Miniprotean II gel system as recommended by the manufacturer. The gels were cut to produce segments of gel containing three lanes of samples containing one lane each of the protein concentrations described above and placed for 15 min in 50 ml of one of the following fixative solutions: 30% ethanol, 20% acetic acid; 40% ethanol, 10% acetic acid; 40% ethanol, 20% acetic acid; 50% ethanol, 10% acetic acid; and 50% ethanol, 20% acetic acid. After the 15 min incubation, the gels were transferred into another 50 ml of the same fixative solution containing 50 μl of dodecyl dansyl stain solution (in 50 ml ethanol, Example 28). After 3 hrs., the segments were placed in 50 ml of 50 mM Tris-Cl, pH8.0, for 5 min and then were visualized on a transilluminator and photographed.
After visualization, the segments were returned to their respective staining solutions and allowed to incubate overnight. The following morning, the segments were visualized and photographed directly on a transilluminator without prior incubation in a different solution.

[8] = tested on: Promega Mid-Range Molecular Weight Markers; assay: In-gel staining with dodecyl dansyl stain; settings: 0.1% (v/v) stain in cathode buffer
Description: In order to determine if in-gel staining with dodecyl dansyl stain could be performed, a gel containing the concentrations of reagents in the gel buffers and running buffers listed in Example 5 was made and run as described in Example 5 with two exceptions: 1) dodecyl dansyl stain (in 50 ml ethanol, Example 28) was added to the cathode buffer at 0.1% (v/v) instead of Promega Green 1; 2) Promega Mid-Range Molecular Weight markers were diluted into 1× loading buffer as described in Example 5 and were loaded on the gel to produce lanes containing each protein at concentrations from 1000 ng/lane to 3.1 ng/lane. Following electrophoresis, the gel was placed directly on a transilluminator and visualized and photographed as described above. […] Thus, staining while the gel is running can be performed with the dodecyl dansyl stain and is particularly favorable for protein species with low mobilities.

[9] = after overnight destaining in 5% methanol

## CCCCCCCCCCCCCCCCNC(=O)CCCCCNc1ccc([N+](=O)[O-])c2nonc12 [NBODY-C16]
[1]
  lowest protein per band detected: 25 ng

## CCCCCCCCCCCCN=C1C(c2ccccc2)=COC1(OC)c1ccccc1 (stereo not drawn) [dodecyl MDPF derivative]
[2]; [9]
  lowest protein per band stained: 20 ng
[3]
  lowest protein per band stained, all proteins: 80 ng
Carbonic anhydrase
  lowest carbonic anhydrase per band stained: 60 ng

## CCCCCCCCCCCCNS(=O)(=O)c1cccc2c(N(C)C)cccc12 [dodecyl dansyl derivative]
[4]
  staining quality compared to the amino or butyl derivatives: much better stains compared to the amino or butyl derivatives
[4]; 15 min staining
  lowest protein amount with visible bands (several of the bands): 100 ng
[4]; overnight staining
  visibility of protein bands: easily visible
[5]; 2% (v/v) eluate in 10% methanol, two hours of staining
  lowest protein per band visible: 300 ng
[5]; after 1% acetic acid, three hours
  protein per band at which most of the protein species were visible: 6.25 ng
[5]; overnight staining
  protein per band at which at least some of the bands could be visualized: 12.5 ng
[6]; all other staining solutions, overnight
  staining: No other staining solution allowed visualization of the fractionated protein species at this point
[6]; stain in 0.5M ammonium bicarbonate, pH 5.0, overnight
  protein per band displayed as fluorescent bands: 25 ng
[6]; stain in 1% acetic acid, overnight
  protein per band displayed as fluorescent bands: 25 ng
[6]; stain in 1% trichloroacetic acid, overnight
  staining: neither protein detection nor background staining
[6]; stain in 2M Tris pH 8.0, overnight
  staining: much weaker staining
[6]; stained in 0.5M ammonium bicarbonate, pH 5.0, then 1 hr water
  staining after distilled water: Staining was seen
[6]; stained in 1% acetic acid, then 1 hr water
  staining after distilled water: greater fluorescence
[6]; stained in 1% trichloroacetic acid, then 1 hr water
  staining after distilled water: greater fluorescence
[6]; stained in 2M Tris pH 8.0, then 1 hr water
  staining after distilled water: Staining was seen
[7]; 3 hrs, 30 or 40% ethanol and 10 or 20% acetic acid, 20, 10, 5 ng per band
  visibility of protein bands: faintly visible
[7]; overnight staining in ethanol/acetic acid
  level of protein per band detected: ≤ 5 ng
[8]
  detection of protein species migrating more than halfway through the gel: not easily detected
  lowest protein per band seen (many of the heavier molecular weight species): 12.5 ng

## CCCCCCCCN=C1C(c2ccccc2)=COC1(OC)c1ccccc1 (stereo not drawn) [octyl MDPF derivative]
[2]; 0.5% (v/v) stain in water, 1 hr
  lowest protein per band stained (most of the species): 20 ng
[2]; [9]
  retention of fluorescent staining: almost all of the fluorescent staining of the octyl MDPF derivative stained gel had been lost
[3]
  lowest protein per band stained, all proteins: 60 ng
Carbonic anhydrase
  lowest carbonic anhydrase per band stained: 40 ng
